Assay results from paper PMC8333425, “Discovery of a dual Ras and ARF6 inhibitor from a GPCR endocytosis screen” (Nature Communications, 2021).
“And” between values parts separate entries of the source, which are not always exact repeats. Equal values may be shown once.

Columns and labels:
[1] = test system: ERK1/2 activation by AT1R; assay: Western blot of AT1R-mediated ERK1/2 activation in Gαq/11 KO cells (with or without β-arrestin2); assay type: cell-based, human; conditions: for ERK1/2 activation by AT1R in cells lacking Gαq/11, supplemented or not with β-arrestin: 50 μM
Protocol: HEK293SL cells (10^5 cells per well) were seeded in a poly-L-lysine-coated six-well plate and transiently transfected with 3 μg Flag-AT1R, HA-B2R or HA-β2AR and/or 500 ng Flag-MEK1-WT, Flag-MEK1-DD, Flag-BRAF-WT, Flag-BRAF-V600E, Flag-K-Ras-WT, Flag-K-Ras-G12V, HA-ARF6-WT, or HA-ARF6-T27N. Gαq/11 KO and βarr1/2 KO cells were seeded onto 100 mm dishes at a density of 10^6 cells per dish. Next day, cells were transfected with 3 μg AT1R alone or along with 500 ng of β-arrestin2 using PEI. After 18 h of transfection, cells were detached and re-seeded onto poly-L-lysine coated 12-well plates (~1.5–2 × 10^5cells/well) for subsequent experiments. Forty-eight hours post transfection, in a 37 °C water bath, cells were serum-starved for 30 min, pretreated with DMSO (0.1%) or compound 21/Rasarfin (50 µM or at indicated concentrations) for 30 min, then stimulated or not with the indicated ligand [AngII (1 µM), BK (1 µM), Iso (10 µM) or EGF (100 ng/ml)] at indicated times. Cells were put on ice, washed with PBS and solubilized in 2x laemmli buffer (250 mM Tris–HCl pH 6.8, 2% SDS (w/v), 10% glycerol (v/v), 0.01% bromophenol blue (w/v) and 5% β-mercaptoethanol (v/v)) by heating at 65 °C for 15 min. Lysates were resolved on 10 or 14% SDS-PAGE, transferred to nitrocellulose membranes and immunoblotted for p-ERK1/2, ERK1/2, p-Akt, Akt, HA, Myc, β-actin or FLAG. ImageLab 5.2 software was used to quantify the digital blots as fold of the phosphorylated protein over total protein, which were then normalized as indicated in the figure legends. Uncropped immunoblots are provided in the Source Data file.

[2] = test system: β-arrestin2 recruitment to B2R; assay: BRET recruitment of β-arrestin2 to B2R; assay type: cell-based, human
Protocol: HEK293SL cells were seeded at a density of 7.5 × 10^5 cells per 100-mm dish and 24 h later, transiently transfected as such. For receptor internalization experiments, cells were transfected with 0.12 μg AT1R-RlucII, B2R-RlucII, or β2AR-RlucII and 0.48 μg of either rGFP-CAAX (to assess removal from the PM) or rGFP-FYVE (to assess accumulation in the endosomes). For β-arrestin recruitment assays, cells were transfected with 0.48 μg of receptor-YFP along with 0.12 μg of β-arrestin-RlucII. For β-arrestin/AP-2 binding experiments, cells were transfected with 1 μg Flag-AT1R, 1 μg β2-Adaptin-YFP, and 0.12 μg β-arrestin2-RlucII. For G protein activation, cells were transfected with 3 μg of sp-Flag-AT1R along with either 4.5 μg of the Gαq-polycistronic BRET sensor or 0.24 μg of the Gαi3-RlucII and 0.6 μg of GFP10-Gγ2 and Gβ1 sensors or 0.12 μg PKN-RBD-RlucII and 0.48 μg of rGFP-CAAX. For PKC activation, cells were transfected with 3 μg of sp-Flag-AT1R and 0.18 μg of the PKC sensor. For GTPase activation experiments, cells were transfected with 1 μg Flag-AT1R, 0.48 μg of rGFP-CAAX, and either 0.12 μg of GGA3-PBD-RlucII, PAK-CRIB-RlucII or Raf-RBD-RlucII. For biosensor validation experiments, cells were additionally transfected with 500 ng Flag-K-Ras-WT, Flag-K-Ras-G12V, Flag-K-Ras-SOS-CAAX, HA-ARF6-WT, HA-ARF6-T27N, Myc-Rac1-WT, Myc-Rac1-Q61L or Myc-Rac1-T17N. For PI3K/Akt activation experiments, cells were transfected with 0.48 μg of rGFP-CAAX and 0.12 μg of Akt (PH)-RlucII. After 18 h of transfection, the media was replaced and cells were divided for subsequent experiments. Cells were detached and seeded onto poly-L-ornithine-coated 96-well flat white bottom plates (BrandTech Scientific) at a density of 2.5 × 10^4 cells per well in media. The next day, cells were washed once with Tyrode’s buffer (140 mM NaCl, 2.7 mM KCl, 1 mM CaCl2, 12 mM NaHCO3, 5.6 mM D-glucose, 0.5 mM MgCl2, 0.37 mM NaH2PO4, 25 mM HEPES, pH 7.4) and left in Tyrode’s buffer. For kinetics of β-arrestin recruitment or β-arrestin binding to receptor and AP-2 experiments, cells were serum starved for 30 min, pretreated with 21 (50 µM) or Barbadin (100 µM) for 30 min, stimulated with 100 nM AngII or 1 µM BK and BRET signals were monitored at indicated times using a Victor X Light plate reader (PerkinElmer). Coelenterazine H (final concentration of 5 µM) was added 3–5 min prior to BRET measurements. Filter set was 460/80 nm and 535/30 nm for detecting the RlucII Renilla luciferase (donor) and YFP (acceptor) light emissions, respectively. The BRET ratio was determined by calculating the ratio of the light emitted by YFP over the light emitted by the RlucII. For G protein activation, cells were serum starved, pretreated with compounds for 30 min, stimulated with 100 nM AngII for 2 min (Gαq, Gαi3, and Rho sensors) or 5 min (PKC sensor). For the kinetics of GTPase and PI3K/Akt activation, cells were serum starved, pretreated with 21 (50 µM) or Wortmannin (200 nM) for 30 min, stimulated with ligand (100 nM AngII or 100 ng/ml EGF) and BRET signals were monitored at indicated times. For concentration-response curves, cells were serum-starved, pretreated with various concentrations of compounds for 30 min and stimulated with ligand (100 nM AngII, 1 µM BK, 10 µM Isoproterenol (Iso) or 100 ng/ml EGF) in Tyrode’s buffer for 30 min for receptor internalization, 10 min for ARF6, 2 min for Rac and Rho activation and 5 min for Ras activation and PI3K/Akt activation. BRET signals were monitored using a Synergy2 (BioTek) microplate reader and coelenterazine 400a (final concentrations of 5 µM) added 3–5 min prior to BRET measurements. Filter set was 410/80 nm and 515/30 nm for detecting the RlucII Renilla luciferase (donor) and rGFP/GFP10 (acceptor) light emissions, respectively. The BRET ratio was determined by calculating the ratio of the light emitted by rGFP/GFP10 over the light emitted by the RlucII.

[3] = Gq/11 KO cells + barr2, Time 0 min

CC(C)C(=O)N1CCN(c2ccc(NC(=O)c3cc4ccccc4o3)cc2Cl)CC1 [Compound 21]
ERK1/2 activation by AT1R in cells lacking Gαq/11, supplemented or not with β-arrestin [1]: efficiently inhibited ERK1/2 activation
ERK1/2 activation by AT1R in cells lacking Gαq/11, supplemented or not with β-arrestin ([1]; listed as Rasarfin): totally blocked
ERK1/2 activation relative to time 0 (S_Fig.4a) [1, 3]: 1
Predicted (LS) mean diff. DMSO - Comp 21 (Bonferroni's multiple comparisons test) [1, 3]: 0
Predicted (LS) mean diff. DMSO - Comp 21 (Bonferroni's multiple comparisons test) ([1]; Gq/11 KO cells + barr2, Time 5 min): 5.112
Predicted (LS) mean diff. DMSO - Comp 21 (Bonferroni's multiple comparisons test) ([1]; Gq/11 KO cells + barr2, Time 20 min): 2.869
ERK1/2 activation relative to time 0 (S_Fig.4a) ([1]; Gq/11 KO cells, Time 0 min): 1
Mean Diff. DMSO - Comp 21 (Bonferroni's multiple comparisons test) ([1]; Gq/11 KO cells, Time 0 min): 0
Mean Diff. DMSO - Comp 21 (Bonferroni's multiple comparisons test) ([1]; Gq/11 KO cells, Time 5 min): 14.92
ERK1/2 activation relative to time 0 (S_Fig.4a) ([1]; Gq/11 KO cells, Time 5 min, listed as Comp 21): 0.6393 and 0.9475 and 0.8926 and 0.5297
Mean Diff. DMSO - Comp 21 (Bonferroni's multiple comparisons test) ([1]; Gq/11 KO cells, Time 20 min): 7.116
β-arrestin2 recruitment to B2R at the PM ([2]; 50 μM): did not preclude
BK-promoted BRET, Barr2 ([2]; Time 0 min): 0
BK-promoted BRET, Barr2 ([2]; Time 5 min, listed as Comp 21): 0.1301 and 0.1897 and 0.1572
BK-promoted BRET, Barr2 ([2]; Time 10 min, listed as Comp 21): 0.1662 and 0.2107 and 0.2145
BK-promoted BRET, Barr2 ([2]; Time 15 min, listed as Comp 21): 0.1989 and 0.1955 and 0.2222
BK-promoted BRET, Barr2 ([2]; Time 30 min, listed as Comp 21): 0.2065 and 0.1814 and 0.2273
BK-promoted BRET, Barr2 ([2]; Time 60 min, listed as Comp 21): 0.2055 and 0.169 and 0.2219
